The text below walks through data of ChEMBL document CHEMBL2407040, “Discovery and optimization of 7-aminofuro[2,3-c]pyridine inhibitors of TAK1” (Bioorg Med Chem Lett, 2013).

Data set [1] deals with T1, Mitogen-activated protein kinase kinase kinase 7 (Homo sapiens, UniProt O43318).
T1 sequence (O43318 whole entry): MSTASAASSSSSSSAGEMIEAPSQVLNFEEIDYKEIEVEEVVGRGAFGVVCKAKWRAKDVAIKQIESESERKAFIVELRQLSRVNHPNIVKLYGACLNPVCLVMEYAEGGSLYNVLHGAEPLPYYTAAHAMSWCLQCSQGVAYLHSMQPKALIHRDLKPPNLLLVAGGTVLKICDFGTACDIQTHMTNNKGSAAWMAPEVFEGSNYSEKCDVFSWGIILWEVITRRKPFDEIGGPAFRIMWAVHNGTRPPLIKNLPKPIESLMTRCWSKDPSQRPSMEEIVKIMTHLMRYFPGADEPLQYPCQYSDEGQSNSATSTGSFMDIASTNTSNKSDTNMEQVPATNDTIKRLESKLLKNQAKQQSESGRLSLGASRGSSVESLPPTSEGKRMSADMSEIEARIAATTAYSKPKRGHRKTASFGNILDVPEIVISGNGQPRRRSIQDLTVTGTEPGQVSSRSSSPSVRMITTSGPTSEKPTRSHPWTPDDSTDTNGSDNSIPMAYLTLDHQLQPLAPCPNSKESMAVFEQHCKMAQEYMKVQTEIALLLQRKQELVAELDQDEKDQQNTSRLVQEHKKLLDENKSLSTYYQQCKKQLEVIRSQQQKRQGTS
In words: Inhibition of TAK1 in human HCT116 cells assessed as inhibition of TNF-alpha-stimulated JNK phosphorylation. In kind it is cell-based, HCT-116.

A further data set concerns the target TAK1/TAB1 (Homo sapiens, UniProt O43318). In words: Inhibition of truncated TAK1-TAB1(unknown origin) using MKK7 as substrate by ALPHAScreen assay in presence of ATP. Format: protein-complex assay. Background: Alpha assays give light when donor and acceptor beads are brought close together.
Data set [2] can be described thus: Metabolic stability in human liver microsomes assessed as extraction ratio. The settings on record: read-out: ERH. Format: ADME, Microsome. A general note: Microsomes from liver hold many membrane-bound enzymes, among them those of drug oxidation.
Data set [3] can be described thus: Metabolic stability in mouse liver microsomes assessed as extraction ratio. In kind it is ADME, Microsome. Particulars: read-out: ERH.

One may read the IC50 as the point on the concentration scale where inhibition reaches its midpoint.

TAK1/TAB1, sequence (Q15750 whole entry, one chain of several, the tested form may be a part): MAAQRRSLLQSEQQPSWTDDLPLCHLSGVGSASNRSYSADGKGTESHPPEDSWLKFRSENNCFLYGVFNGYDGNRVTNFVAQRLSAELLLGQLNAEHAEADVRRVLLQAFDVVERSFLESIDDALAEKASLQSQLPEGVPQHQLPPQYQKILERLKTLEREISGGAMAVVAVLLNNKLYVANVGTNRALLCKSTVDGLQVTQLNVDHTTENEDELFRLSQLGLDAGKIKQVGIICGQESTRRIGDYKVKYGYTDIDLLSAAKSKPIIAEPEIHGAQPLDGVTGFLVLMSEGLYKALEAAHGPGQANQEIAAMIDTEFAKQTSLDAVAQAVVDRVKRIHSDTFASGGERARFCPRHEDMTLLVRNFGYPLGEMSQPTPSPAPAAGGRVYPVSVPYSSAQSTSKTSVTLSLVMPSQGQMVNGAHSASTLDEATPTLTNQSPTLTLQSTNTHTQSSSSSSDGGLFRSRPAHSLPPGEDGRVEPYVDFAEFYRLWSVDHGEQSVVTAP

As to `CC(=O)N1CCC(n2cc(-c3cnc(N)c4oc(-c5cccc(N(C)C)c5)cc34)cn2)CC1`, the values for the concentration for half-maximal inhibition (IC50) (in data set [1]; on TAK1/TAB1) were 690 nM and 2400 nM, respectively.

For `CC(=O)N1CCC(n2cc(-c3cnc(N)c4oc(-c5ccc(OC(F)(F)F)cc5)cc34)cn2)CC1`, the half-maximal inhibitory concentration (IC50) in data set [1] was found to be 8000 nM; on TAK1/TAB1, 3500 nM. Taken in the same sequence, the figures for `CC(=O)N1CCC(n2cc(-c3cnc(N)c4oc(-c5ccc(C#N)cc5)cc34)cn2)CC1` were 2800 nM and 2500 nM. As to `CC(=O)N1CCC(n2cc(-c3cnc(N)c4oc(-c5ccc(C(=O)N(C)C)cc5)cc34)cn2)CC1`, the IC50 on TAK1/TAB1 was > 30000 nM. Take `CC(=O)N1CCC(n2cc(-c3cnc(N)c4oc(-c5ccc(CO)cc5)cc34)cn2)CC1`: the half-inhibitory concentration (IC50) in data set [1] came out at 4400 nM; at TAK1/TAB1 it was 2800 nM. For `CC(=O)N1CCC(n2cc(-c3cnc(N)c4oc(-c5ccc(CC#N)cc5)cc34)cn2)CC1`, in that order: 1900 nM and 1500 nM. With `CC(=O)N1CCC(n2cc(-c3cnc(N)c4oc(-c5cccc6nnsc56)cc34)cn2)CC1`, the hepatic extraction ratio in data set [2] was 0.68; in data set [3], 0.7. Moreover, the IC50 worked out at 12 nM in data set [1] and 4 nM on TAK1/TAB1.

`CC(=O)N1CCC(n2cc(-c3cnc(N)c4oc(-c5csc6cnccc56)cc34)cn2)CC1`: the hepatic extraction ratio in data set [2] amounted to 0.68; in data set [3], 0.72. Also, the IC50 in data set [1] was 110 nM; on TAK1/TAB1, 30 nM. For `CC(=O)N1CCC(n2cc(-c3cnc(N)c4oc(-c5cn(C)c6cnccc56)cc34)cn2)CC1`, in that order: 0.64, 0.91, 340 nM and 18 nM.

With `CC(=O)N1CCC(n2cc(-c3cnc(N)c4oc(-c5cccc6ccccc56)cc34)cn2)CC1`, the hepatic extraction ratio in data set [2] stood at 0.66; in data set [3], 0.77. Further, the half-maximal inhibitory concentration (IC50) in data set [1] came out at 1200 nM; on TAK1/TAB1 it was 1000 nM. For `CC(=O)N1CCC(n2cc(-c3cnc(N)c4oc(-c5csc6ccccc56)cc34)cn2)CC1`, in that order: 0.68, 0.85, 440 nM and 340 nM. Turning to `CC(=O)N1CCC(n2cc(-c3cnc(N)c4oc(-c5cnc6cnccn56)cc34)cn2)CC1`, the hepatic extraction ratio is 0 in data set [2] and 0.52 in data set [3]. Also, the IC50 on TAK1/TAB1 was found to be 1400 nM. For `CC(=O)N1CCC(n2cc(-c3cnc(N)c4oc(-c5cccc(C#N)c5)cc34)cn2)CC1`, the results for the 50% inhibitory concentration (IC50) (in data set [1]; at TAK1/TAB1) were 370 nM and 250 nM, respectively. For `CC(=O)N1CCC(n2cc(-c3cnc(N)c4oc(-c5cccc(C(F)(F)F)c5)cc34)cn2)CC1`, in that order: 1600 nM and 2800 nM. For `CC(=O)c1cccc(-c2cc3c(-c4cnn(C5CCN(C(C)=O)CC5)c4)cnc(N)c3o2)c1`, in that order: 1000 nM and 2800 nM. Taken in the same sequence, the figures for `CC(=O)N1CCC(n2cc(-c3cnc(N)c4oc(-c5cccc(C(N)=O)c5)cc34)cn2)CC1` were 3100 nM and 530 nM. In the case of `CC(=O)N1CCC(n2cc(-c3cnc(N)c4oc(-c5cccc(CN)c5)cc34)cn2)CC1`, the IC50 in data set [1] was 4000 nM; at TAK1/TAB1, 790 nM. For `CC(=O)N1CCC(n2cc(-c3cnc(N)c4oc(-c5cccc(CO)c5)cc34)cn2)CC1`, in that order: 470 nM and 850 nM. For `CSc1ccc(-c2cc3c(-c4cnn(C5CCN(C(C)=O)CC5)c4)cnc(N)c3o2)cc1`, in that order: 5200 nM and 17500 nM. For `CC(=O)N1CCC(n2cc(-c3cnc(N)c4oc(-c5ccc(S(C)(=O)=O)cc5)cc34)cn2)CC1`, in that order: > 20000 nM and 25700 nM.

On to `CC(=O)N1CCC(n2cc(-c3cnc(N)c4oc(-c5ccc(N)cc5)cc34)cn2)CC1`, for which the half-inhibitory concentration (IC50) is 1000 nM in data set [1] and 1800 nM at TAK1/TAB1. In the case of `CC(=O)N1CCC(n2cc(-c3cnc(N)c4oc(-c5ccc(NS(C)(=O)=O)cc5)cc34)cn2)CC1`, at TAK1/TAB1, the 50% inhibitory concentration (IC50) amounted to 4900 nM.

On to `CC(=O)N1CCC(n2cc(-c3cnc(N)c4oc(-c5ccc(O)cc5)cc34)cn2)CC1`, for which the IC50 in data set [1] is 500 nM; at TAK1/TAB1, 270 nM. In the case of `CC(=O)N1CCC(n2cc(-c3cnc(N)c4oc(-c5cnsc5)cc34)cn2)CC1`, the IC50 on TAK1/TAB1 is 880 nM. As to `CSc1ccccc1-c1cc2c(-c3cnn(C4CCN(C(C)=O)CC4)c3)cnc(N)c2o1`, the IC50 turned out to be 500 nM in data set [1] and 430 nM on TAK1/TAB1.

`CC(=O)Nc1ccccc1-c1cc2c(-c3cnn(C4CCN(C(C)=O)CC4)c3)cnc(N)c2o1`: at TAK1/TAB1, the 50% inhibitory concentration (IC50) was > 30000 nM. Take `CC(=O)N1CCC(n2cc(-c3cnc(N)c4oc(-c5ccccc5C#N)cc34)cn2)CC1`: the IC50 came to 1700 nM in data set [1] and 560 nM on TAK1/TAB1.

As for `CC(=O)N1CCC(n2cc(-c3cnc(N)c4oc(-c5ccccc5C(F)(F)F)cc34)cn2)CC1`, the concentration for half-maximal inhibition (IC50) at TAK1/TAB1 was > 30000 nM. `CC(=O)c1ccccc1-c1cc2c(-c3cnn(C4CCN(C(C)=O)CC4)c3)cnc(N)c2o1`: the IC50 worked out at 3100 nM in data set [1] and 5400 nM at TAK1/TAB1. Take `CC(=O)N1CCC(n2cc(-c3cnc(N)c4oc(-c5ccccc5C(N)=O)cc34)cn2)CC1`: the half-inhibitory concentration (IC50) was 4500 nM in data set [1] and 6000 nM at TAK1/TAB1. Taken in the same sequence, the figures for `CC(=O)N1CCC(n2cc(-c3cnc(N)c4oc(-c5ccccc5CO)cc34)cn2)CC1` were 1500 nM and 750 nM. `COCc1ccccc1-c1cc2c(-c3cnn(C4CCN(C(C)=O)CC4)c3)cnc(N)c2o1`: the concentration for half-maximal inhibition (IC50) is 1800 nM in data set [1] and 1400 nM at TAK1/TAB1.

On to `CC(=O)N1CCC(n2cc(-c3cnc(N)c4oc(-c5ccccc5CC#N)cc34)cn2)CC1`, for which the concentration for half-maximal inhibition (IC50) in data set [1] worked out at 530 nM; on TAK1/TAB1, 250 nM. In the case of `CSc1cccc(-c2cc3c(-c4cnn(C5CCN(C(C)=O)CC5)c4)cnc(N)c3o2)c1`, the IC50 in data set [1] came to 1200 nM; on TAK1/TAB1 it was 4300 nM. For `CC(=O)N1CCC(n2cc(-c3cnc(N)c4oc(-c5cccc(S(C)(=O)=O)c5)cc34)cn2)CC1`, in that order: 1100 nM and 4900 nM. For `CC(=O)N1CCC(n2cc(-c3cnc(N)c4oc(-c5cccc(S(N)(=O)=O)c5)cc34)cn2)CC1`, the 50% inhibitory concentration (IC50) at TAK1/TAB1 worked out at 1800 nM. As for `CC(=O)N1CCC(n2cc(-c3cnc(N)c4oc(-c5cccc(S(=O)(=O)N(C)C)c5)cc34)cn2)CC1`, the IC50 in data set [1] is 1100 nM; on TAK1/TAB1, 1400 nM. For `CC(=O)N1CCC(n2cc(-c3cnc(N)c4oc(-c5cccc([N+](=O)[O-])c5)cc34)cn2)CC1`, in that order: 200 nM and 89 nM. Taken in the same sequence, the figures for `CC(=O)N1CCC(n2cc(-c3cnc(N)c4oc(-c5cccc(N)c5)cc34)cn2)CC1` were 510 nM and 770 nM. Take `CC(=O)Nc1cccc(-c2cc3c(-c4cnn(C5CCN(C(C)=O)CC5)c4)cnc(N)c3o2)c1`: the IC50 in data set [1] was 9000 nM; on TAK1/TAB1 it was 3200 nM. As for `CC(=O)N1CCC(n2cc(-c3cnc(N)c4oc(-c5cccc(O)c5)cc34)cn2)CC1`, the figures for the half-inhibitory concentration (IC50) (in data set [1]; at TAK1/TAB1) were 610 nM and 61 nM, respectively. Taken in the same sequence, the figures for `COc1cccc(-c2cc3c(-c4cnn(C5CCN(C(C)=O)CC5)c4)cnc(N)c3o2)c1` were 1200 nM and 1800 nM. For `COCCOc1cccc(-c2cc3c(-c4cnn(C5CCN(C(C)=O)CC5)c4)cnc(N)c3o2)c1`, in that order: 2700 nM and 3200 nM. Take `CC(=O)N1CCC(n2cc(-c3cnc(N)c4oc(-c5cccc(OC(F)(F)F)c5)cc34)cn2)CC1`: the 50% inhibitory concentration (IC50) in data set [1] was 1800 nM; on TAK1/TAB1 it was 3500 nM.

On to `CC(=O)N1CCC(n2cc(-c3cnc(N)c4oc(-c5ccccc5)cc34)cn2)CC1`, for which the half-maximal inhibitory concentration (IC50) in data set [1] amounted to 520 nM; on TAK1/TAB1, 1100 nM. As to `CC(=O)N1CCC(n2cc(-c3cnc(N)c4oc(-c5cccnc5)cc34)cn2)CC1`, on TAK1/TAB1, the IC50 turned out to be 710 nM. Same read-out and setting: in the case of `CC(=O)N1CCC(n2cc(-c3cnc(N)c4oc(C5=CCNCC5)cc34)cn2)CC1` it was 800 nM; in that of `CC(=O)N1CCC(n2cc(-c3cnc(N)c4oc(C5=CCCCC5)cc34)cn2)CC1`, 460 nM; in that of `CC(=O)N1CCC(n2cc(-c3cnc(N)c4oc(C5CCCCC5)cc34)cn2)CC1`, 650 nM.

As to `CC(=O)N1CCC(n2cc(-c3cnc(N)c4oc(C5=CCCC5)cc34)cn2)CC1`, the IC50 on TAK1/TAB1 was 1200 nM. Same read-out and setting: as for `CC(=O)N1CCC(n2cc(-c3cnc(N)c4oc(C5CCCC5)cc34)cn2)CC1`, the figure is 2100 nM; as for `CC(=O)N1CCC(n2cc(-c3cnc(N)c4oc(-c5ccsc5)cc34)cn2)CC1`, 480 nM.

For `CC(=O)N1CCC(n2cc(-c3cnc(N)c4oc(-c5cn[nH]c5)cc34)cn2)CC1`, the IC50 in data set [1] was determined as 9100 nM; on TAK1/TAB1 it was 130 nM. In the case of `CC(=O)N1CCC(n2cc(-c3cnc(N)c4oc(-c5cnn(C)c5)cc34)cn2)CC1`, the IC50 on TAK1/TAB1 turned out to be 1600 nM. Regarding `CC(=O)N1CCC(n2cc(-c3cnc(N)c4oc(-c5cnco5)cc34)cn2)CC1`, the IC50 at TAK1/TAB1 is 1200 nM.
